From patent publication US20080045535A1, “Prokineticin 2 receptor antagonists” (priority 2005, published 2008) come the findings set out here.

SMILES strings stand for the structures. Several values for one entry are separate records, joined by “and”; a condition that tells them apart may be missing. Equal entries are not always repeated.

The target of the assay is T1, HEK 293 GPR73 (prokineticin 1 receptor) expressing cells (Homo sapiens, UniProt Q8TCW9).
T1 construct: expressed in transfected cells; host or cells: HEK 293
T1 sequence (Q8TCW9 whole entry): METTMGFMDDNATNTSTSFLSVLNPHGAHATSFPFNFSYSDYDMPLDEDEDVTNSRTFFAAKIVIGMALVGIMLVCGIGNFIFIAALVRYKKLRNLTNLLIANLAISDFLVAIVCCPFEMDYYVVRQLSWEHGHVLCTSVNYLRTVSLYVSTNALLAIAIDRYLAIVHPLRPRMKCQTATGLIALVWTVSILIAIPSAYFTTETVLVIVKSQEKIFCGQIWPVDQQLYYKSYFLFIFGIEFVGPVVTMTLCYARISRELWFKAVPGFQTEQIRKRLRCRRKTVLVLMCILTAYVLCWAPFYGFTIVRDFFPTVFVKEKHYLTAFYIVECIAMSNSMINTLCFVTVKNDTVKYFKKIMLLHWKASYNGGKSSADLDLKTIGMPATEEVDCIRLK
Nature of the assay: PK1 functional assay: screening for PK1 antagonists on the FLIPR (calcium fluorescence). The assay is classed as cell-based. The conditions noted are these: HEK 293 GPR73 cells; for inhibition at 10 µM: HEK293, compound at 10 μM, read-out: Ca^2+ Mobilization % Inh @10 μM; for inhibition at 10 µM / Ca^2+ Mobilization % Inh @10 μM: multiple values = repeat tests; for IC50: PK1 ligand at EC50, multiple values = repeat tests, read-out: Ca^2+ Mobilization IC50; for Ca^2+ Mobilization % Inh @10 μM: compound at 10 μM. As for the experimental part:
At a time of 24 h prior to running the assay, in cell culture media (DMEM containing high Glucose and L-glutamine, 10% FBS, 1% Pen/Streptomycin, 1% Sodium Pyruvate, 20 mM HEPES, Zeocin 200 mg/L), 100 μL of 1.3*10^6/ml HEK 293 GPR73 (prokineticin 1 receptor) expressing cells were plated in a 96 well poly-d-lysine coated plate (Costar), and incubated at 37 C and 5% CO2. On the day in which the assay was run, the media was removed and 200 μL of 5× Calcium Plus Dye (Molecular Devices) which was previously resuspended with 200 mL of assay buffer [HBSS w/Ca^2+ and Mg^2+ w/o phenol red, 20 mM HEPES, 0.1% BSA, 10 mL probenecid (710 mg probenecid in 5 mL of 1N NaOH, to which was then added 5 mL HBSS containing 20 mM HEPES)] was added to each well of the 96-well plate. The plate was incubated at 37 C and 5% CO2 for 30 min in dark. The plate was removed and allowed to reach RT for 15 min in the dark. The assay was then run on the FLIPR. […] Baseline is described as the amount of relative fluorescence read when buffer alone is added to cells. Baseline was subtracted from all wells. Percent of control was calculated as follows:
(Baseline subtracted well value is divided by baseline subtracted max value)*100.
Percent inhibition is 100 minus the percent of control value.
IC50 values were calculated using GraphPad Prism.
Table 2 includes data generated from the PK1 functional assay described in Example 2.

Turning to `N=C(N)NCCNc1nc(=O)n(Cc2ccc(Cl)c(Cl)c2)c(=O)n1Cc1ccc(OC(F)F)cc1` [Cpd 41], the inhibition at 10 µM came out at 101%; the IC50 (as a rule, the concentration needed to halve the response being measured) is 27 nM and 47 nM and 64 nM. Besides, the “Ca^2+ Mobilization % Inh @10 μM” value (10 µM) was 100% and 99%.
Regarding `COc1ccc(Cn2c(N[C@H]3CCCC[C@@H]3NC(=N)N)nc(=O)n(Cc3ccc(Cl)c(Cl)c3)c2=O)cc1` [Cpd 43], the inhibition at 10 µM amounted to 31% and the IC50 was above 10000 nM.
Take `COc1ccc(Cn2c(NCCNC(=N)N)nc(=O)n(Cc3ccc(SC)cc3)c2=O)cc1` [Cpd 45]: the inhibition at 10 µM amounted to 103% and the IC50 worked out at 18 nM.
On to `CCc1ccc(Cn2c(=O)nc(NCCNC(=N)N)n(Cc3ccc(OC)cc3)c2=O)cc1` [Cpd 46, N-{2-[5-(4-Ethyl-benzyl)-1-(4-methoxy-benzyl)-4,6-dioxo-1,4,5,6-tetrahydro-[1,3,5]triazin-2-ylamino]-ethyl}-guanidine], for which the inhibition at 10 µM was 101% and the IC50 is 58 nM.
The corresponding values for `COc1ccc(Cn2c(NCCNC3=NCC(=O)N3)nc(=O)n(Cc3ccc(Cl)c(Cl)c3)c2=O)cc1` [Cpd 48, 3-(3,4-Dichloro-benzyl)-1-(4-methoxy-benzyl)-6-[2-(5-oxo-4,5-dihydro-1H-imidazol-2-ylamino)-ethylamino]-1H-[1,3,5]triazine-2,4-dione] are 94% and 798 nM.
`COc1ccc(Cn2c(NCCNC3=NCCN3)nc(=O)n(Cc3ccc(Cl)c(Cl)c3)c2=O)cc1` [Cpd 49, 3-(3,4-Dichloro-benzyl)-6-[2-(4,5-dihydro-1H-imidazol-2-ylamino)-ethylamino]-1-(4-methoxy-benzyl)-1H-[1,3,5]triazine-2,4-dione]: the inhibition at 10 µM was determined as 75% and the IC50 was determined as 2000 nM.
In the case of `CC(=O)Nc1ccc(Cn2c(NCCNC(=N)N)nc(=O)n(Cc3ccc(Cl)c(Cl)c3)c2=O)cc1` [Cpd 50], the inhibition at 10 µM amounted to 96% and the IC50 came out at 248 nM.
For `N=C(N)NCCNc1nc(=O)n(Cc2ccc(Cl)c(Cl)c2)c(=O)n1Cc1ccc(C(N)=O)cc1` [Cpd 51, 4-[3-(3,4-Dichlorobenzyl)-6-(2-guanidinoethylamino)-2,4-dioxo-3,4-dihydro-2H-[1,3,5]triazin-1-yl-methyl]-benzamide], in that order: 100% and 47 nM.
For `CCOc1cccc(Cn2c(NCCNC(=N)N)nc(=O)n(Cc3ccc(Cl)c(Cl)c3)c2=O)c1` [Cpd 52], in that order: 58% and 6520 nM.
On to `CCCNC(=N)NCCNc1nc(=O)n(Cc2ccc(Cl)c(Cl)c2)c(=O)n1Cc1ccc(OC)cc1` [Cpd 54], for which the inhibition at 10 µM amounted to 98%; the IC50 was 14 nM and 6 nM. Moreover, the “Ca^2+ Mobilization % Inh @10 μM” value (10 µM) amounted to 101%.
With `COc1ccc(Cn2c(N3CCC(NC(=N)N)C3)nc(=O)n(Cc3ccc(Cl)c(Cl)c3)c2=O)cc1` (stereo not shown) [Cpd 55], the inhibition at 10 µM was found to be 58% and the IC50 was 6730 nM.
The corresponding values for `COc1ccc(Cn2c(N[C@@H]3CCCC[C@H]3NC(=N)N)nc(=O)n(Cc3ccc(Cl)cc3)c2=O)cc1` [Cpd 56] are 98% and 61 nM.
For `N=C(N)NCCNc1nc(=O)n(Cc2ccc(Cl)c(Cl)c2)c(=O)n1Cc1cccc(OC(F)F)c1` [Cpd 57], in that order: 51% and 8210 nM.
In the case of `COc1ccc(Cn2c(NCCN(C(=N)N)C(C)C)nc(=O)n(Cc3ccc(Cl)c(Cl)c3)c2=O)cc1` [Cpd 58, N-{2-[5-(3,4-Dichloro-benzyl)-1-(4-methoxy-benzyl)-4,6-dioxo-1,4,5,6-tetrahydro-[1,3,5]triazin-2-ylamino]-ethyl}-N-isopropyl-guanidine], the IC50 was 16 nM. Moreover, the “Ca^2+ Mobilization % Inh @10 μM” value (10 µM) was 102% and 99% and 98%.
With `CCN(CCNc1nc(=O)n(Cc2ccc(Cl)c(Cl)c2)c(=O)n1Cc1ccc(OC)cc1)C(=N)N` [Cpd 59], the inhibition at 10 µM stood at 99%; the IC50 was 50 nM and 35 nM. Besides, under “10 µM”, the “Ca^2+ Mobilization % Inh @10 μM” value was found to be 100%.
For `COc1ccc(Cn2c(NCCN3CCNC3=N)nc(=O)n(Cc3ccc(Cl)c(Cl)c3)c2=O)cc1` [Cpd 60, 3-(3,4-Dichloro-benzyl)-6-[2-(2-imino-imidazolidin-1-yl)-ethylamino]-1-(4-methoxy-benzyl)-1H-[1,3,5]triazine-2,4-dione], the inhibition at 10 µM was 100% and the IC50 was determined as 54 nM.
`CCCCNC(=N)NCCNc1nc(=O)n(Cc2ccc(Cl)c(Cl)c2)c(=O)n1Cc1ccc(OC)cc1` [Cpd 61]: the inhibition at 10 µM is 102% and the IC50 was determined as 45 nM.
For `COc1ccc(Cn2c(NCCNC(=N)NC3CCCCC3)nc(=O)n(Cc3ccc(Cl)c(Cl)c3)c2=O)cc1` [Cpd 62], the inhibition at 10 µM was found to be 98% and the IC50 was found to be 59 nM.
Take `COc1ccc(Cn2c(NCCNC(=N)NCc3ccccc3)nc(=O)n(Cc3ccc(Cl)c(Cl)c3)c2=O)cc1` [Cpd 63]: the inhibition at 10 µM was 101% and the IC50 came out at 120 nM.
`COc1ccc(Cn2c(NCCNC(=N)NCC3CCCO3)nc(=O)n(Cc3ccc(Cl)c(Cl)c3)c2=O)cc1` (stereo not shown) [Cpd 64]: the inhibition at 10 µM stood at 100% and the IC50 was 72 nM.
Consider `COc1ccc(Cn2c(NCCNC(=N)NCCc3ccccc3)nc(=O)n(Cc3ccc(Cl)c(Cl)c3)c2=O)cc1` [Cpd 65], for which the IC50 came out at 485 nM and the “Ca^2+ Mobilization % Inh @10 μM” value is on record as 88%.
In the case of `COc1ccc(Cn2c(NCCNC(=N)NCc3ccco3)nc(=O)n(Cc3ccc(Cl)c(Cl)c3)c2=O)cc1` [Cpd 66], the inhibition at 10 µM was found to be 99% and the IC50 came out at 23 nM.
For `COCCNC(=N)NCCNc1nc(=O)n(Cc2ccc(Cl)c(Cl)c2)c(=O)n1Cc1ccc(OC)cc1` [Cpd 67], in that order: 99% and 18 nM.
For `COc1ccc(Cn2c(NCCCNC(=N)N)nc(=O)n(Cc3ccc(Cl)c(Cl)c3)c2=O)cc1` [Cpd 68], in that order: 84% and 1210 nM.
As for `C=CCNC(=N)NCCNc1nc(=O)n(Cc2ccc(Cl)c(Cl)c2)c(=O)n1Cc1ccc(OC)cc1` [Cpd 70], the inhibition at 10 µM came out at 101%; the IC50 is 9 nM and 7 nM; the “Ca^2+ Mobilization % Inh @10 μM” value is on record as 101, 101%.
With `COc1ccc(Cn2c(NCCNC(=N)Nc3ccccc3)nc(=O)n(Cc3ccc(Cl)c(Cl)c3)c2=O)cc1` [Cpd 71], the inhibition at 10 µM is 100%; the IC50 was 12 nM and 7 nM. Besides, under “10 µM”, the “Ca^2+ Mobilization % Inh @10 μM” value is reported as 99%.
On to `COc1ccc(Cn2c(NCCNC(=N)Nc3ccc(OC)cc3)nc(=O)n(Cc3ccc(Cl)c(Cl)c3)c2=O)cc1` [Cpd 72], for which the inhibition at 10 µM came to 100% and the IC50 came to 64 nM.
For `COc1ccc(Cn2c(NCCNC(=N)Nc3ccc(Cl)cc3)nc(=O)n(Cc3ccc(Cl)c(Cl)c3)c2=O)cc1` [Cpd 73], in that order: 100% and 39 nM.
Consider `COc1ccc(Cn2c(NCCNC(=N)Nc3ccc(C(F)(F)F)cc3)nc(=O)n(Cc3ccc(Cl)c(Cl)c3)c2=O)cc1` [Cpd 74], for which the inhibition at 10 µM was determined as 100% and the IC50 was 138 nM.
The corresponding values for `COc1ccc(Cn2c(NCCNC(=N)Nc3cccnc3)nc(=O)n(Cc3ccc(Cl)c(Cl)c3)c2=O)cc1` [Cpd 75] are 101% and 36 nM.
For `COc1ccc(Cn2c(NCCNC(=N)Nc3ccc(C(C)=O)cc3)nc(=O)n(Cc3ccc(Cl)c(Cl)c3)c2=O)cc1` [Cpd 76], in that order: 93% and 230 nM.
